Several values for one entry are separate records, joined by “and”; a condition that tells them apart may be missing. Equal entries are not always repeated.
Details: Gas, Frequency=0.005 MHz, Spherical cavity resonance method

F/C=C/C(F)(F)F [trans-1,3,3,3-tetrafluoropropene]
Details	speed of sound
279.9 K, 79.55 kPa	146.69 m/s and 146.7 m/s
279.9 K, 157.55 kPa	143.78 m/s
279.9 K, 241.33 kPa	140.43 m/s
279.91 K, 79.56 kPa	146.7 m/s
279.91 K, 241.34 kPa	140.43 m/s
279.92 K, 157.55 kPa	143.79 m/s
279.92 K, 241.34 kPa	140.43 m/s
299.96 K, 80.04 kPa	152.13 m/s
299.96 K, 239.74 kPa	147.27 m/s
299.97 K, 80.03 kPa	152.13 m/s
299.97 K, 159.07 kPa	149.78 m/s
299.97 K, 239.75 kPa	147.27 m/s
299.97 K, 361.26 kPa	143.22 m/s
299.98 K, 80.03 kPa	152.13 m/s
299.98 K, 159.07 kPa	149.78 m/s
299.98 K, 239.74 kPa	147.27 m/s
299.98 K, 361.27 kPa	143.22 m/s
319.93 K, 552.34 kPa	144.79 m/s
319.94 K, 98.42 kPa	156.86 m/s
319.94 K, 195.83 kPa	154.47 m/s
319.94 K, 195.84 kPa	154.47 m/s
319.94 K, 400.99 kPa	149.11 m/s
319.94 K, 552.38 kPa	144.78 m/s
319.94 K, 552.39 kPa	144.78 m/s
319.95 K, 98.42 kPa	156.87 m/s
319.95 K, 195.84 kPa	154.47 m/s
319.95 K, 400.99 kPa	149.1 m/s
319.96 K, 98.42 kPa	156.86 m/s
319.97 K, 790.74 kPa	137.11 m/s
319.97 K, 790.76 kPa	137.11 m/s
319.98 K, 790.76 kPa	137.11 m/s
319.98 K, 790.77 kPa	137.11 m/s
319.99 K, 790.81 kPa	137.11 m/s
339.94 K, 1198.3 kPa	134.8 m/s and 134.79 m/s
339.95 K, 199.81 kPa	159.81 m/s
339.95 K, 199.82 kPa	159.81 m/s
339.95 K, 311.18 kPa	157.48 m/s
339.95 K, 311.19 kPa	157.48 m/s
339.95 K, 511.43 kPa	153.07 m/s
339.95 K, 511.55 kPa	153.07 m/s
339.95 K, 797.03 kPa	146.18 m/s
339.95 K, 797.04 kPa	146.18 m/s
339.95 K, 1001.8 kPa	140.68 m/s
339.95 K, 1001.9 kPa	140.68 m/s
339.95 K, 1198.4 kPa	134.8 m/s
339.96 K, 99.31 kPa	161.86 m/s
339.96 K, 200.05 kPa	159.82 m/s
339.96 K, 311.18 kPa	157.48 m/s
339.96 K, 400.04 kPa	155.58 m/s and 155.58 m/s
339.96 K, 511.39 kPa	153.07 m/s
339.96 K, 797.05 kPa	146.18 m/s
339.96 K, 1001.9 kPa	140.68 m/s
339.97 K, 99.31 kPa	161.86 m/s
339.97 K, 200.05 kPa	159.82 m/s
339.97 K, 200.06 kPa	159.82 m/s
339.97 K, 400.04 kPa	155.58 m/s
339.97 K, 799.59 kPa	146.12 m/s
339.98 K, 595.08 kPa	151.15 m/s
339.98 K, 799.46 kPa	146.12 m/s
339.98 K, 799.52 kPa	146.12 m/s
359.95 K, 99 kPa	166.68 m/s
359.95 K, 99.01 kPa	166.68 m/s
359.96 K, 99 kPa	166.68 m/s
359.96 K, 99.01 kPa	166.69 m/s and 166.68 m/s
359.96 K, 307 kPa	163.12 m/s
359.96 K, 510.35 kPa	159.46 m/s
359.96 K, 808.74 kPa	153.75 m/s
359.96 K, 1598.8 kPa	135.69 m/s
359.97 K, 307 kPa	163.12 m/s
359.97 K, 511.03 kPa	159.45 m/s
359.97 K, 808.65 kPa	153.75 m/s
359.97 K, 808.68 kPa	153.75 m/s
359.97 K, 1174.2 kPa	146.04 m/s
359.97 K, 1174.3 kPa	146.04 m/s
359.97 K, 1598.8 kPa	135.7 m/s
359.97 K, 2002.9 kPa	123.58 m/s and 123.58 m/s
359.98 K, 1598.8 kPa	135.7 m/s
359.98 K, 2002.9 kPa	123.58 m/s
379.99 K, 98.62 kPa	171.32 m/s
379.99 K, 98.63 kPa	171.32 m/s
379.99 K, 297.94 kPa	168.44 m/s
